Laboratory results taken from ChEMBL document CHEMBL1201862, “PubChem BioAssay data set” (2004).
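Exposure lasted 48 hours, with cells grown in 96-well plates and compounds tested at five concentrations. At the GI50, growth is halved.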 The source made the active and inactive calls. Rule as the data show it: active = GI50 up to about 1.1 µM and inactive = higher.

Assays:
Assay in all cases: NCI-60 cell line screen, 48 h
UO-31 = test system: UO-31
U-251 = test system: U-251
SN12C = test system: SN12C
SF-539 = test system: SF-539
ACHN = test system: ACHN
RXF 393 = test system: RXF 393
EKVX = test system: EKVX
SR = test system: SR
LXFL 529 = test system: LXFL 529
MOLT-4 = test system: MOLT-4
HCT-15 = test system: HCT-15
HCC 2998 = test system: HCC 2998
SW-620 = test system: SW-620
OVCAR-5 = test system: OVCAR-5
HCT-116 = test system: HCT-116
HL-60 = test system: HL-60

| SMILES | GI50 (UO-31) | GI50 (U-251) | GI50 (SN12C) | GI50 (SF-539) | GI50 (ACHN) | GI50 (RXF 393) | GI50 (EKVX) | GI50 (SR) | GI50 (LXFL 529) | GI50 (MOLT-4) | GI50 (HCT-15) | GI50 (HCC 2998) | GI50 (SW-620) | GI50 (OVCAR-5) | GI50 (HCT-116) | GI50 (HL-60) |
| --- | --- | --- | --- | --- | --- | --- | --- | --- | --- | --- | --- | --- | --- | --- | --- | --- |
| CC(=O)OC1COC(N2C(=O)C(=O)c3ccccc32)C(OC(C)=O)C1OC(C)=O (stereo not drawn) | > 100 µM (inactive) | > 100 µM (inactive) | > 100 µM (inactive) | > 100 µM (inactive) | > 100 µM (inactive) | > 100 µM (inactive) | > 100 µM (inactive) | > 100 µM (inactive) | > 100 µM (inactive) | > 100 µM (inactive) | > 100 µM | > 100 µM (inactive) | > 100 µM (inactive) |  |  |  |
| COc1ccc(C(c2c(O)c3ccccc3n(-c3ccccc3)c2=O)c2c(O)c3ccccc3n(-c3ccccc3)c2=O)cc1 | > 100 µM (inactive) | > 100 µM (inactive) | > 100 µM (inactive) | > 100 µM (inactive) | > 100 µM (inactive) | > 100 µM (inactive) | > 100 µM (inactive) | 72.4 µM (inactive) | > 100 µM (inactive) | > 100 µM (inactive) | > 100 µM | > 100 µM (inactive) | > 100 µM (inactive) | > 100 µM (inactive) | > 100 µM (inactive) |  |
| O/N=C1/C(=C/c2ccc(Oc3ccccc3)cc2)CCCC1C(NO)c1ccc(Oc2ccccc2)cc1 (stereo not drawn) | 21 µM (inactive) | 51.2 µM (inactive) | 22.8 µM (inactive) | 40 µM (inactive) | 24 µM (inactive) | 14.5 µM (inactive) | 81.3 µM (inactive) |  | 33 µM (inactive) | 4.43 µM (inactive) | 47 µM | 32.5 µM (inactive) | 32.4 µM (inactive) | 63 µM (inactive) | 11.5 µM (inactive) | 8.51 µM (inactive) |
| CCCC(C)NC1=C(NC(C)=O)C(=O)c2ccccc2C1=O (stereo not drawn) | > 100 µM (inactive) | > 100 µM (inactive) | > 100 µM (inactive) | > 100 µM (inactive) | > 100 µM (inactive) | > 100 µM (inactive) | > 100 µM (inactive) | > 100 µM (inactive) | > 100 µM (inactive) | > 100 µM (inactive) | > 100 µM | > 100 µM (inactive) | > 100 µM (inactive) |  | > 100 µM (inactive) | 97.3 µM (inactive) |
| O=C1c2ccccc2C(=O)N1C/C=N/NS(=O)(=O)c1ccc2ccccc2c1 | > 100 µM (inactive) | > 100 µM (inactive) | > 100 µM (inactive) | > 100 µM (inactive) | > 100 µM (inactive) |  | > 100 µM (inactive) | > 100 µM (inactive) | > 100 µM (inactive) | > 100 µM (inactive) | > 100 µM | > 100 µM (inactive) | > 100 µM (inactive) | > 100 µM (inactive) | > 100 µM (inactive) | > 100 µM (inactive) |
| CN(C)c1nc(N(C)C)sc(=O)n1 | > 100 µM (inactive) | > 100 µM (inactive) | > 100 µM (inactive) | > 100 µM (inactive) | > 100 µM (inactive) | > 100 µM (inactive) | > 100 µM (inactive) | > 100 µM (inactive) | > 100 µM (inactive) | > 100 µM (inactive) | > 100 µM | > 100 µM (inactive) | > 100 µM (inactive) | > 100 µM (inactive) |  | > 100 µM (inactive) |
| CCS/C(=N\c1ccccc1)SC | > 100 µM (inactive) | > 100 µM (inactive) | > 100 µM (inactive) | > 100 µM (inactive) | > 100 µM (inactive) | > 100 µM (inactive) | > 100 µM (inactive) |  | > 100 µM (inactive) | > 100 µM (inactive) | > 100 µM | > 100 µM (inactive) | > 100 µM (inactive) | > 100 µM (inactive) | > 100 µM (inactive) | > 100 µM (inactive) |
| COc1cc2c(cc1OC)C(C(CBr)CBr)N(C1CCCC1)CC2 (stereo not drawn) | > 100 µM (inactive) | > 100 µM (inactive) |  | > 100 µM (inactive) | > 100 µM (inactive) | > 100 µM (inactive) | > 100 µM (inactive) | > 100 µM (inactive) | > 100 µM (inactive) | > 100 µM (inactive) | > 100 µM | > 100 µM (inactive) | > 100 µM (inactive) | > 100 µM (inactive) |  | > 100 µM (inactive) |
| C#C[C@@]1(O)CCCC2=CC(=O)C[C@]21C | > 100 µM (inactive) | > 100 µM (inactive) | > 100 µM (inactive) | > 100 µM (inactive) | > 100 µM (inactive) | > 100 µM (inactive) | > 100 µM (inactive) | > 100 µM (inactive) | > 100 µM (inactive) | > 100 µM (inactive) | > 100 µM | > 100 µM (inactive) | > 100 µM (inactive) | > 100 µM (inactive) |  | > 100 µM (inactive) |
| CC1=C(CO)C(=O)O[C@@H]([C@@H](C)[C@H]2CC[C@H]3[C@@H]4C[C@H]5O[C@]56[C@@H](O)C=CC(=O)[C@]6(C)[C@H]4CC[C@]23C)C1 [WITHAFERIN A] | 1.09 µM (active) | 0.247 µM (active) |  | 1.34 µM (inactive) | 1.7 µM (inactive) |  |  | 0.189 µM (active) | 0.333 µM (active) | 0.187 µM (active) | 0.446 µM | 0.509 µM (active) | 0.199 µM (active) | 1.91 µM (inactive) | 0.282 µM (active) | 0.0394 µM (active) |
| CCCN(CCC)C1=Nc2ccccc2-n2cnnc2C1 | > 100 µM (inactive) | > 100 µM (inactive) | > 100 µM (inactive) | > 100 µM (inactive) | > 100 µM (inactive) | > 100 µM (inactive) | > 100 µM (inactive) | > 100 µM (inactive) | > 100 µM (inactive) | > 100 µM (inactive) | > 100 µM |  | > 100 µM (inactive) | > 100 µM (inactive) | > 100 µM (inactive) | > 100 µM (inactive) |
| C[N+](C)(C)CC1CCCCC1O (stereo not drawn) | > 100 µM (inactive) | > 100 µM (inactive) | > 100 µM (inactive) | > 100 µM (inactive) | > 100 µM (inactive) | > 100 µM (inactive) |  | > 100 µM (inactive) | > 100 µM (inactive) | > 100 µM (inactive) | > 100 µM | > 100 µM (inactive) | > 100 µM (inactive) | > 100 µM (inactive) | > 100 µM (inactive) |  |
| COC(=O)C[S+]([O-])c1ccccc1 (stereo not drawn) | 4.63 µM (inactive) | 24.4 µM (inactive) | 17.6 µM (inactive) | 20.9 µM (inactive) | 33.7 µM (inactive) | 16.4 µM (inactive) | 50.7 µM (inactive) |  | 31.8 µM (inactive) | 10.8 µM (inactive) | 28.7 µM | 25.3 µM (inactive) | 38.3 µM (inactive) | 68.4 µM (inactive) | 30.3 µM (inactive) | 15.5 µM (inactive) |
| O=C(OCc1nc2ccc(Br)cc2c(=O)n1-c1ccccc1)c1ccccc1O | 29.8 µM (inactive) | > 100 µM (inactive) | > 100 µM (inactive) | > 100 µM (inactive) | 70.5 µM (inactive) | > 100 µM (inactive) | 66.1 µM (inactive) |  | 35.4 µM (inactive) | 37.9 µM (inactive) |  | > 100 µM (inactive) | > 100 µM (inactive) | > 100 µM (inactive) | > 100 µM (inactive) | 36.7 µM (inactive) |
